Source: doi:10.1101/2020.02.14.948786v2 (bioRxiv, 2020)

Test system: Ca^2+ spiking in Neurospora crassa conidia expressing GCaMP6s
Experiment: Ca^2+ spiking in single conidia expressing GCaMP6s
Format: cell-based
Details: conidia pre-treated with 5 mM BAPTA before ddH2O or PAF26 treatment

O=C(O)CN(CC(=O)O)c1ccccc1OCCOc1ccccc1N(CC(=O)O)CC(=O)O [BAPTA]
frequency of Ca^2+ spiking after chelation of external Ca^2+: 0
